Laboratory results reported in patent publication US11261170B2, “Aromatic compound, pharmaceutical composition and use thereof” (Sichuan Kelun-Biotech Biopharmaceutical Co., Ltd., priority 2017, dated 2022).

Key:
PPARα = PPARα (Homo sapiens (Human), UniProt Q07869); assay: Activation of transient transfected PPAR α in HEK293 cells (GAL4-hPPAR α luciferase assay); format: cell-based; settings: HEK293 transfected with GAL4-hPPAR α, 24 h incubation
Protocol: Test example 1: Experiment of the compounds on activation of transient transfected PPAR α in HEK293 cells
Plasmid: pcDNA3.1(+)-GAL4-hPPAR α, customized by Nanjing Kebai Biotechnology Co., Ltd.
(§1) Liposome: PGL4.35, customized by Nanjing Kebai Biotechnology Co., Ltd.
(§2) Cell: human embryonic kidney cells HEK293, purchased from ATCC.
(§3) Transfection reagent: Lipofectamine Reagent 3000 purchased from Invitrogen.
(§4) Assay kit: Bright Glo™ Luciferase Assay System purchased from Promega.
(§5) HEK293 cells were incubated in DMEM medium containing 10% of fetal bovine serum at 37° C. in the presence of 5% of CO2. 3×10^5/ml cells were plated in each well of the 6-well plate. When the cell convergence degree reached 50%-80%, 5 μg of liposome PGL4.35 and 5 μg of expression plasmid pcDNA3.1(+)-GAL4-hPPAR α were added to transfect the cells for 24 h and then the cells were collected. The transfected cells were plated in the 96-well plate and the compounds of the application in different concentrations were added, incubated for 24 h, and Bright Glo™ Luciferase Assay System reagent was added for luciferase assay.

PPARδ = PPARδ (Homo sapiens (Human), UniProt Q03181); assay: Activation of transient transfected PPAR δ in HEK293 cells (GAL4-hPPAR δ luciferase assay); format: cell-based; settings: HEK293 transfected with GAL4-hPPAR δ, 24 h incubation
Sequence of PPARδ (Q03181 whole entry, looked up, the tested form may be a part): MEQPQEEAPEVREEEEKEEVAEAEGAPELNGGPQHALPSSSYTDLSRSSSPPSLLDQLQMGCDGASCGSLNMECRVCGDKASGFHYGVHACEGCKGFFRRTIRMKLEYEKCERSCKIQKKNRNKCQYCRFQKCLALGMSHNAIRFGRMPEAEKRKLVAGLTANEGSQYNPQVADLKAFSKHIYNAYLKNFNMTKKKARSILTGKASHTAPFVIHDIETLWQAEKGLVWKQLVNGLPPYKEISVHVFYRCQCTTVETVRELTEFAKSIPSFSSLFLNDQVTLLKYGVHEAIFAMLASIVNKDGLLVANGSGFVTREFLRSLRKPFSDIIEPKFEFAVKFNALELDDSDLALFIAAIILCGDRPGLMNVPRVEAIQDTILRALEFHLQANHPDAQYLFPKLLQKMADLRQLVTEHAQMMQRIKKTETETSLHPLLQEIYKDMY
Protocol: Test Example 2: Experiment of the Compounds on Activation of Transient Transfected PPAR δ in HEK293 Cells
Plasmid: pcDNA3.1(+)-GAL4-hPPAR δ, customized by Nanjing Kebai Biotechnology Co., Ltd.
as §1, §2, §3, §4
as §5, with “δ” for “α”, “Then, the” for “The”, “reagent” for “reagent was added”, “assay was added.” for “assay.”

[1] = Cytotoxicity test on HepG2 cells (CellTiter Glo); format: cell-based; settings: human, incubated for 3 days
Protocol: (§6) Test Example 4: Cytotoxicity Test of Compound on HepG2 & Hek293 Cells
(§7) Cells: human hepatocyte HepG2, purchased from ATCC; Human embryonic kidney cells HEK293: purchased from ATCC;
(§8) Assay reagent: CellTiter Glo® Luminescent Cell Viability Assay, purchased from Promega.
(§9) HepG2 and HEK293 cells were incubated in DMEM/F12 medium containing 10% of fetal bovine serum respectively. A proper amount of cells were plated into a 96-well plate, the plate was placed in an incubator overnight, and the culture medium was removed, and replaced with a complete culture medium containing the compound of the application, and incubated for 3 days. On day 4, an assay reagent CellTiter Glo was added to each well, and the relative luminous unit (RLU) of each well was determined by chemiluminescence. CC50 values of the compound of the application to HepG2 and HEK293 cells were calculated by GraphPad software, and the results were shown in Table 3.

[2] = Cytotoxicity test on HEK293 cells (CellTiter Glo); format: cell-based; settings: human, incubated for 3 days
Protocol: as §6, §7, §8, §9

[3] = target: hERG potassium ion channel (Homo sapiens (Human), UniProt Q12809); assay: Predictor hERG fluorescence polarization; format: binding
Sequence of hERG potassium ion channel (Q12809 whole entry): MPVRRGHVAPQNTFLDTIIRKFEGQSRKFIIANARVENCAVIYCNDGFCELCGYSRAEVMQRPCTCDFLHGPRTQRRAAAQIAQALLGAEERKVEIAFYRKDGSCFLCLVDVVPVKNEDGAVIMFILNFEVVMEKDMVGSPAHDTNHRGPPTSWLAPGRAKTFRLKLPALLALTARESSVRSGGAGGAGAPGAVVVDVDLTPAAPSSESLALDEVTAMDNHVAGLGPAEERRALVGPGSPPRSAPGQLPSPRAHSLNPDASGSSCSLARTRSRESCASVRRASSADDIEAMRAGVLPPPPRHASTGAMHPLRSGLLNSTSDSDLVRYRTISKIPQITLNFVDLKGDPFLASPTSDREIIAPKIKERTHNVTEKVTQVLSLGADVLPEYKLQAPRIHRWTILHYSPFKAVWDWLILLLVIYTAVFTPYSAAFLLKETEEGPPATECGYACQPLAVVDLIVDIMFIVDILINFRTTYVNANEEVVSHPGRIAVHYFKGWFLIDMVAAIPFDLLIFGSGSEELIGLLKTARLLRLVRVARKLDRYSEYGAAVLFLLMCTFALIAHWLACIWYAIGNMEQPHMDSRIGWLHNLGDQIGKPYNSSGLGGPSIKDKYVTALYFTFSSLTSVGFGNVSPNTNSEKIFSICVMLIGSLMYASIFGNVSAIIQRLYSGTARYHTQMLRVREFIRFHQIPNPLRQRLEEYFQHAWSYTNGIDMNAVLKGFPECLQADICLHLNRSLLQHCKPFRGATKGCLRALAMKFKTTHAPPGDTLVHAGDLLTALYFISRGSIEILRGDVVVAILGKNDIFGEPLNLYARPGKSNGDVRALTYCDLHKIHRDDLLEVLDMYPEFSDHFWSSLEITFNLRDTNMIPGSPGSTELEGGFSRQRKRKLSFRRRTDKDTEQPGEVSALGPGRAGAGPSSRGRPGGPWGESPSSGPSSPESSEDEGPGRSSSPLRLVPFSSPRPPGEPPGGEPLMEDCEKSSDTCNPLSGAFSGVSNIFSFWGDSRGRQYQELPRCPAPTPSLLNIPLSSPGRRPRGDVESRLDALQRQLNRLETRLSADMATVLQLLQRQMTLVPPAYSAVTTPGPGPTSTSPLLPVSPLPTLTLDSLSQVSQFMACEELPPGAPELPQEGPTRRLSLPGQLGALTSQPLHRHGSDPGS
Protocol: Test Example 5: In Vitro Safety Test
The effect of the compound on hERG potassium ion channel was tested by Predictor™ hERG fluorescence polarization.

[4] = tested on: MCD model of non-alcoholic steatohepatitis; assay: In vivo efficacy study in the MCD model of non-alcoholic steatohepatitis; set-up: species or system C57 Mice; settings: MCD diet mice
Protocol: Test Example 6: In Vivo Efficacy Study of Compound in the MCD Model of Non-Alcoholic Steatohepatitis In this example, comparative test between compound GFT505 from WO2018133705A1 and compounds of the invention was conducted, so as to show the advantages of compounds of the invention. C57 Mice at 8-10 weeks of age (purchased from Vital River Laboratories) were body-weight matched and randomly divided into groups of normal, model, control and test. Mice in normal group were fed with standard chow for 9 weeks. Mice in model group, control group and test group were fed with MCD diet (Methionine-Choline Deficient Diet, Research Diets) for 9 weeks to induce NASH Model. During weeks 5-9 of the 9-week course of MCD diet, the control group and the test group were treated with GFT505 and TM4 of the invention, respectively, and the normal group and model group were treated with 0.5% MC. The dosage regimen was specified in table 5. [table] Animals were dissected after administration on day 35, livers were collected for H&E staining (hematoxylin-eosin staining) and sirius red staining. And then NAFLD activity score, including liver steatosis score, inflammation score and ballooning score, and liver fibrosis score were conducted.

[5] = 1 mg/kg intragastric once every day for 35 days
[6] = 1 mg/kg, 35 days, result in words

Sequence of PPARα (Q07869 whole entry, looked up, the tested form may be a part): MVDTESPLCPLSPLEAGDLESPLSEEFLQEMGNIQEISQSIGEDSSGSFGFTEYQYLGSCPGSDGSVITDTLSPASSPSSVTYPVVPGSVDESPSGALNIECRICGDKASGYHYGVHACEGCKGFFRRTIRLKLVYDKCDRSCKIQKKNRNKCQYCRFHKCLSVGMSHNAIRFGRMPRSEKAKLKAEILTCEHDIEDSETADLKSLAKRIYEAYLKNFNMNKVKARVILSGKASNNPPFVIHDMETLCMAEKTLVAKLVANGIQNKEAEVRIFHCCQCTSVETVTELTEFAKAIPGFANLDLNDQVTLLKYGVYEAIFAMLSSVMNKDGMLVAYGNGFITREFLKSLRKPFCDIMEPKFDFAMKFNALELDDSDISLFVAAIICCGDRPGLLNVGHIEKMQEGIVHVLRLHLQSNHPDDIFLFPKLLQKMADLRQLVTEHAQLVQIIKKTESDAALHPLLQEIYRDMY

| SMILES | EC50 (PPARα) | EC50 (PPARδ) | CC50 at 3 days [1] | CC50 at 3 days [2] | IC50 [3] | also measured |
| --- | --- | --- | --- | --- | --- | --- |
| Cc1cc(/C=C/C(=O)c2cc3ccccc3s2)cc(C)c1OC(C)(C)C(=O)O [Example 2, (E)-2-(4-(3-(benzo [b]thien-2-yl)-3-oxo-1-propen-1-yl)-2,6-dimethylphenoxy)-2-methylpropionic acid] | 1210 nM | 6130 nM | ~7270 nM | ~8140 nM | 8240 nM | – |
| Cc1cc(/C=C/C(=O)c2cnc3ccccc3c2)cc(C)c1OC(C)(C)C(=O)O [Example 3, (E)-2-(4-(3-(quinolin-3-yl)-3-oxo-1-propen-1-yl)-2,6-dimethylphenoxy)-2-methylpropionic acid] | 1930 nM | – | – | – | > 10000 nM | – |
| Cc1cc(/C=C/C(=O)c2cc3ccccc3nc2Cl)cc(C)c1OC(C)(C)C(=O)O [Example 4, (E)-2-(4-(3-(2-chloroquinolin-3-yl)-3-oxo-1-propen-1-yl)-2,6-dimethylphenoxy)-2-methyl propionic acid] | 278 nM | 3440 nM | 11300 nM | 13600 nM | > 10000 nM | – |
| COCCOc1nc2ccccc2cc1C(=O)/C=C/c1cc(C)c(OC(C)(C)C(=O)O)c(C)c1 [Example 6, (E)-2-(4-(3-(2-(2-methoxyethoxy)quinolin-3-yl)-3-oxo-1-propen-1-yl)-2,6-dimethylphenoxy)-2-methylpropionic acid] | 52.8 nM | 374 nM | > 10000 nM | > 10000 nM | > 10000 nM | – |
| Cc1cc(/C=C/C(=O)c2cc3ccccc3nc2C)cc(C)c1OC(C)(C)C(=O)O [Example 7, (E)-2-(4-(3-(2-methylquinolin-3-yl)-3-oxo-1-propen-1-yl)-2,6-dimethylphenoxy)-2-methylpropionic acid] | 752 nM | – | > 10000 nM | > 10000 nM | – | – |
| Cc1cc(/C=C/C(=O)c2cc3ccccc3nc2C(F)(F)F)cc(C)c1OC(C)(C)C(=O)O [Example 8, (E)-2-(4-(3-(2-trifluoromethylquinolin-3-yl)-3-oxo-1-propen-1-yl)-2,6-dimethylphenoxy)-2-methylpropionic acid] | 692 nM | – | > 10000 nM | > 10000 nM | > 10000 nM | – |
| Cc1cc(/C=C/C(=O)c2cc3ccccc3nc2N(C)C)cc(C)c1OC(C)(C)C(=O)O [Example 9, (E)-2-(4-(3-(2-dimethylaminoquinolin-3-yl)-3-oxo-1-propen-1-yl)-2,6-dimethylphenoxy)-2-methylpropionic acid] | – | – | – | – | > 10000 nM | – |
| Cc1cc(/C=C/C(=O)c2cc3ccccc3nc2N2CCCC2)cc(C)c1OC(C)(C)C(=O)O [Example 10, (E)-2-(4-(3-(2-(1-pyrrolidinyl)quinolin-3-yl)-3-oxo-1-propen-1-yl)-2,6-dimethylphenoxy)-2-methylpropionic acid] | 77 nM | 2510 nM | – | – | > 10000 nM | – |
| Cc1cc(/C=C/C(=O)c2cc3ccccc3nc2N2CCOCC2)cc(C)c1OC(C)(C)C(=O)O [Example 11, (E)-2-(4-(3-(2-(morpholin-4-yl)quinolin-3-yl)-3-oxo-1-propen-1-yl)-2,6-dimethylphenoxy)-2-methylpropionic acid] | 585 nM | 4430 nM | – | – | – | – |
| CSc1nc2ccccc2cc1C(=O)/C=C/c1cc(C)c(OC(C)(C)C(=O)O)c(C)c1 [Example 17, (E)-2-(4-(3-(2-methylthioquinolin-3-yl)-3-oxo-1-propen-1-yl)-2,6-dimethylphenoxy)-2-methylpropionic acid] | 123 nM | – | – | – | > 10000 nM | – |
| COc1ccc2cc(C(=O)/C=C/c3cc(C)c(OC(C)(C)C(=O)O)c(C)c3)c(Cl)nc2c1 [Example 18, (E)-2-(4-(3-(2-chloro-7-methoxy-quinolin-3-yl)-3-oxo-1-propen-1-yl)-2,6-dimethylphenoxy)-2-methylpropionic acid] | 8.62 nM | 810 nM | – | – | > 10000 nM | – |
| COc1ccc2cc(C(=O)/C=C/c3cc(C)c(OC(C)(C)C(=O)O)c(C)c3)c(OC)nc2c1 [Example 19, (E)-2-(4-(3-(2,7-dimethoxy-quinolin-3-yl)-3-oxo-1-propen-1-yl)-2,6-dimethylphenoxy)-2-methylpropionic acid] | 1.33 nM | 796 nM | – | – | > 10000 nM | – |
| COc1ccc2nc(Cl)c(C(=O)/C=C/c3cc(C)c(OC(C)(C)C(=O)O)c(C)c3)cc2c1 [Example 20, (E)-2-(4-(3-(2-chloro-6-methoxy-quinolin-3-yl)-3-oxo-1-propen-1-yl)-2,6-dimethylphenoxy)-2-methylpropionic acid] | 460 nM | – | – | – | – | – |
| COc1ccc2nc(OC)c(C(=O)/C=C/c3cc(C)c(OC(C)(C)C(=O)O)c(C)c3)cc2c1 [Example 21, (E)-2-(4-(3-(2,6-dimethoxy-quinolin-3-yl)-3-oxo-1-propen-1-yl)-2,6-dimethylphenoxy)-2-methylpropionic acid] | 5.4 nM | 675 nM | – | – | > 10000 nM | – |
| CSc1ccc(C(=O)/C=C/c2cc(C)c(OC(C)(C)C(=O)O)c(C)c2)cc1 [GFT505, reference compound] | – | – | – | – | – | Liver fibrosis score (Mean ± SD) [4, 5]: 1.22 ± 0.44; NAFLD activity score (Mean ± SD) [4, 5]: 3.33 ± 0.87; Reduction of NAFLD activity score compared with model group [4, 6]: not statistically significant; Reduction of liver fibrosis score compared with model group [4, 6]: not statistically significant |
